# According to PMC10938783, “A novel pan-PI3K inhibitor KTC1101 synergizes with anti-PD-1 therapy by targeting tumor suppression and immune activation” (Molecular Cancer, 2024):
# Values joined by “and” are separate entries in the source; they are usually repeats but may differ in a detail not shown here. Identical values can stand only once.
# Tested on: B16 cells gene expression
# Experiment: RNA-Seq (DEGs, GSEA, heatmaps) of B16 cells
# Conditions: B16 cells, replicates KTC1-KTC3
compound,measurement,setting,value
COc1cc(N)cc2c1nc(C(F)F)n2-c1nc(N2CCCOCC2)nc(N2CCOCC2)n1 [KTC],Adam19 gene expression (RNA-Seq),KTC 0.04μM,11.78 and 12.44 and 13.05
same,Axl gene expression (RNA-Seq),KTC 0.04μM,4.83 and 4.54 and 4.92
same,Btg1 gene expression (RNA-Seq),KTC 0.04μM,6.87 and 7.6 and 7.15
same,Capg gene expression (RNA-Seq),KTC 0.04μM,24.95 and 22.04 and 23.37
same,Ccl5 gene expression (RNA-Seq),KTC 0.04μM,9.15 and 9.99 and 10.19
same,Ccn1 gene expression (RNA-Seq),KTC 0.04μM,37.5 and 41.45 and 42.8
same,Ccnd1 gene expression (RNA-Seq),KTC 0.04μM,70.38 and 71.17 and 69.7
same,Cx3cl1 gene expression (RNA-Seq),KTC 0.04μM,1.55 and 2.17 and 1.72
same,Cxcl10 gene expression (RNA-Seq),KTC 0.04μM,16.76 and 15.67 and 17.26
same,Dusp1 gene expression (RNA-Seq),KTC 0.04μM,4.08 and 4.86 and 3.75
same,Dusp4 gene expression (RNA-Seq),KTC 0.04μM,48.69 and 51.07 and 50.43
same,Egr1 gene expression (RNA-Seq),KTC 0.04μM,0.45 and 0.83 and 0.94
same,Etv4 gene expression (RNA-Seq),KTC 0.04μM,1.8 and 1.31 and 1.55
same,Fos gene expression (RNA-Seq),KTC 0.04μM,5.98 and 9.07 and 3.6
same,Fosb gene expression (RNA-Seq),KTC 0.04μM,5.83 and 8.56 and 1.19
same,Hes1 gene expression (RNA-Seq),KTC 0.04μM,2.93 and 3.6 and 4.11
same,Irak2 gene expression (RNA-Seq),KTC 0.04μM,4.46 and 3.71 and 4.84
same,Irf6 gene expression (RNA-Seq),KTC 0.04μM,0.75 and 0.73 (2×)
same,Irs2 gene expression (RNA-Seq),KTC 0.04μM,4.62 and 4.54 and 4.48
same,Jag1 gene expression (RNA-Seq),KTC 0.04μM,3.9 and 3.6 and 3.87
same,Junb gene expression (RNA-Seq),KTC 0.04μM,5.41 and 5.91 and 6.31
same,Klf2 gene expression (RNA-Seq),KTC 0.04μM,2.37 and 2.53 and 1.84
same,Klf9 gene expression (RNA-Seq),KTC 0.04μM,1.42 and 1.56 and 1.52
same,Maff gene expression (RNA-Seq),KTC 0.04μM,1.99 and 1.97 and 1.81
same,Myc gene expression (RNA-Seq),KTC 0.04μM,51.1 and 50.03 and 54.71
same,Nfkb2 gene expression (RNA-Seq),KTC 0.04μM,19.99 and 21.56 and 22.54
same,Nfkbia gene expression (RNA-Seq),KTC 0.04μM,16.08 and 16.06 and 15.47
same,Nfkbie gene expression (RNA-Seq),KTC 0.04μM,12.93 and 13.17 and 14.09
same,Nr4a1 gene expression (RNA-Seq),KTC 0.04μM,27.6 and 28.38 and 30.22
same,Nr4a3 gene expression (RNA-Seq),KTC 0.04μM,13.97 and 13.13 and 12.62
same,P2rx7 gene expression (RNA-Seq),KTC 0.04μM,9.9 and 10.96 and 10.37
same,Pde4b gene expression (RNA-Seq),KTC 0.04μM,7.81 and 8.81 and 8.51
same,Pmepa1 gene expression (RNA-Seq),KTC 0.04μM,0.72 and 0.75 and 0.79
same,Pnrc1 gene expression (RNA-Seq),KTC 0.04μM,23.22 and 24.79 and 24.57
same,Relb gene expression (RNA-Seq),KTC 0.04μM,7.12 and 7.46 and 7.78
same,Rgs16 gene expression (RNA-Seq),KTC 0.04μM,6.49 and 5.97 and 6.54
same,Rhob gene expression (RNA-Seq),KTC 0.04μM,30.37 and 32.79 and 32.66
same,Serpine1 gene expression (RNA-Seq),KTC 0.04μM,0.22 and 0.24 and 0.32
same,Sgk1 gene expression (RNA-Seq),KTC 0.04μM,3.46 and 3.48 and 3.41
same,Sgms2 gene expression (RNA-Seq),KTC 0.04μM,0.2 and 0.16 and 0.24
same,Spred2 gene expression (RNA-Seq),KTC 0.04μM,15.32 and 15.07 and 16.22
same,Spry4 gene expression (RNA-Seq),KTC 0.04μM,1.16 and 1.17 and 1.15
same,Tiparp gene expression (RNA-Seq),KTC 0.04μM,15.99 and 15.69 and 16.6
same,Zc3h12a gene expression (RNA-Seq),KTC 0.04μM,2.43 and 2.61 and 1.93
same,Zfp36 gene expression (RNA-Seq),KTC 0.04μM,3.85 and 4.04 and 4.57
same,Adam19 gene expression (RNA-Seq),KTC 0.2μM,19.27 and 19.65 and 19.87
same,Adcy1 gene expression (RNA-Seq),KTC 0.2μM,0.05 (2×) and 0.09
same,Adcy6 gene expression (RNA-Seq),KTC 0.2μM,15.71 and 16.34 and 15.68
same,Adcy7 gene expression (RNA-Seq),KTC 0.2μM,24.18 and 23.98 and 24.16
same,Ahr gene expression (RNA-Seq),KTC 0.2μM,3.75 and 3.9 and 4.26
same,Arrb1 gene expression (RNA-Seq),KTC 0.2μM,7.32 and 7.58 and 7.1
same,Axl gene expression (RNA-Seq),KTC 0.2μM,19.13 and 18.11 and 18.34
same,Bcl3 gene expression (RNA-Seq),KTC 0.2μM,1.26 and 1.46 and 1.81
same,Birc3 gene expression (RNA-Seq),KTC 0.2μM,0.82 and 0.69 and 1.02
same,Btg1 gene expression (RNA-Seq),KTC 0.2μM,10.22 and 9.53 and 9.68
same,Capg gene expression (RNA-Seq),KTC 0.2μM,39.95 and 40.18 and 41.23
same,Ccl5 gene expression (RNA-Seq),KTC 0.2μM,26.92 and 30.51 and 26.01
same,Ccl6 gene expression (RNA-Seq),KTC 0.2μM,0.22 (2×) and 0.39
same,Ccl9 gene expression (RNA-Seq),KTC 0.2μM,0.11 and 0.07 and 0.02
same,Ccl27b gene expression (RNA-Seq),KTC 0.2μM,0.37 and 0.93 and 0.69
same,Ccn1 gene expression (RNA-Seq),KTC 0.2μM,43.03 and 43.88 and 47.2
same,Ccnd1 gene expression (RNA-Seq),KTC 0.2μM,93.08 and 94.99 and 95.21
same,Cish gene expression (RNA-Seq),KTC 0.2μM,2.04 and 1.79 and 1.74
same,Ckap4 gene expression (RNA-Seq),KTC 0.2μM,13.31 and 12.58 and 12.66
same,Cx3cl1 gene expression (RNA-Seq),KTC 0.2μM,1.83 and 1.75 and 1.74
same,Cxcl1 gene expression (RNA-Seq),KTC 0.2μM,0.29 and 0.77 and 0.5
same,Cxcl10 gene expression (RNA-Seq),KTC 0.2μM,23.61 and 22.04 and 22.99
same,Cxcr3 gene expression (RNA-Seq),KTC 0.2μM,1.95 and 1.7 and 1.8
same,Dcps gene expression (RNA-Seq),KTC 0.2μM,124.78 and 129.34 and 129.92
same,Dusp1 gene expression (RNA-Seq),KTC 0.2μM,6.18 and 4.88 and 5.31
same,Dusp4 gene expression (RNA-Seq),KTC 0.2μM,74.48 and 66.32 and 71.85
same,Egr1 gene expression (RNA-Seq),KTC 0.2μM,2.42 and 2.39 and 2.31
same,Egr2 gene expression (RNA-Seq),KTC 0.2μM,0.12 and 0.14 and 0.22
same,Etfbkmt gene expression (RNA-Seq),KTC 0.2μM,13.18 and 12.47 and 12.84
same,Etv4 gene expression (RNA-Seq),KTC 0.2μM,2.57 and 3.09 and 3.52
same,Fos gene expression (RNA-Seq),KTC 0.2μM,6.53 and 3.78 and 2.09
same,Fosb gene expression (RNA-Seq),KTC 0.2μM,6.21 and 3 and 0.33
same,Gnb4 gene expression (RNA-Seq),KTC 0.2μM,8.23 and 8.94 and 8.73
same,Gng11 gene expression (RNA-Seq),KTC 0.2μM,47.07 and 50.78 and 52.97
same,Gsto1 gene expression (RNA-Seq),KTC 0.2μM,56.3 and 52.98 and 58.2
same,Hes1 gene expression (RNA-Seq),KTC 0.2μM,4.87 and 4.41 and 5.8
same,Ifitm3 gene expression (RNA-Seq),KTC 0.2μM,48.58 and 48.45 and 50.69
same,Igf1r gene expression (RNA-Seq),KTC 0.2μM,6.64 and 6.31 and 6.49
same,Ikzf2 gene expression (RNA-Seq),KTC 0.2μM,0.58 and 0.65 and 0.83
same,Il3ra gene expression (RNA-Seq),KTC 0.2μM,8.13 and 8.28 and 7.91
same,Il4ra gene expression (RNA-Seq),KTC 0.2μM,0.35 and 0.33 and 0.39
same,Il15ra gene expression (RNA-Seq),KTC 0.2μM,0.8 and 0.77 and 0.98
same,Il18 gene expression (RNA-Seq),KTC 0.2μM,2.98 and 3.73 and 3.81
same,Irak2 gene expression (RNA-Seq),KTC 0.2μM,6.66 and 7.18 and 6.91
same,Irf6 gene expression (RNA-Seq),KTC 0.2μM,0.95 and 0.94 and 0.76
same,Irs2 gene expression (RNA-Seq),KTC 0.2μM,6.99 and 6.74 and 7.06
same,Jag1 gene expression (RNA-Seq),KTC 0.2μM,5.14 and 5.2 and 5.32
same,Junb gene expression (RNA-Seq),KTC 0.2μM,9.95 and 9.21 and 10.31
same,Klf2 gene expression (RNA-Seq),KTC 0.2μM,5.92 and 4.44 and 4.22
same,Klf4 gene expression (RNA-Seq),KTC 0.2μM,1.74 and 0.87 and 0.94
same,Klf9 gene expression (RNA-Seq),KTC 0.2μM,2.21 and 2.14 and 2.03
same,Lif gene expression (RNA-Seq),KTC 0.2μM,0.18 and 0.1 and 0.2
same,Lrrc8c gene expression (RNA-Seq),KTC 0.2μM,9.54 and 9.91 and 9.16
same,Maff gene expression (RNA-Seq),KTC 0.2μM,8.01 and 8.27 and 7.95
same,Myc gene expression (RNA-Seq),KTC 0.2μM,80.51 and 79.74 and 85.17
same,Nfkb2 gene expression (RNA-Seq),KTC 0.2μM,29.06 and 30.4 and 30.6
same,Nfkbia gene expression (RNA-Seq),KTC 0.2μM,28.35 and 27.12 and 24.65
same,Nfkbie gene expression (RNA-Seq),KTC 0.2μM,23.83 and 25.35 and 25
same,Nr4a1 gene expression (RNA-Seq),KTC 0.2μM,46.25 and 44.44 and 46.02
same,Nr4a3 gene expression (RNA-Seq),KTC 0.2μM,17.79 and 16.5 and 17.39
same,P2rx7 gene expression (RNA-Seq),KTC 0.2μM,16.97 and 18.85 and 16.56
same,Pde4b gene expression (RNA-Seq),KTC 0.2μM,11.38 and 11.69 and 11.76
same,Pim1 gene expression (RNA-Seq),KTC 0.2μM,7.35 and 8.15 and 8.02
same,Plcb2 gene expression (RNA-Seq),KTC 0.2μM,0.43 and 0.62 and 0.67
same,Plcg2 gene expression (RNA-Seq),KTC 0.2μM,1.3 and 1.71 and 1.76
same,Pmepa1 gene expression (RNA-Seq),KTC 0.2μM,1.45 and 1.08 and 1.06
same,Pnrc1 gene expression (RNA-Seq),KTC 0.2μM,33.48 and 28.22 and 29.95
same,Prnp gene expression (RNA-Seq),KTC 0.2μM,1380.34 and 1358.49 and 1354.58
same,Ptk2b gene expression (RNA-Seq),KTC 0.2μM,2.37 and 2.08 and 2.03
same,Relb gene expression (RNA-Seq),KTC 0.2μM,11.53 and 13.05 and 11.17
same,Rgs16 gene expression (RNA-Seq),KTC 0.2μM,9.71 and 10 and 9.9
same,Rhob gene expression (RNA-Seq),KTC 0.2μM,60.96 and 58.66 and 58.57
same,Serpine1 gene expression (RNA-Seq),KTC 0.2μM,1.09 and 0.86 and 1.2
same,Shc3 gene expression (RNA-Seq),KTC 0.2μM,0.37 and 0.31 and 0.25
same,Smad3 gene expression (RNA-Seq),KTC 0.2μM,20.9 and 21.03 and 22.24
same,Smpdl3a gene expression (RNA-Seq),KTC 0.2μM,36.94 and 40.39 and 39.45
same,Spred2 gene expression (RNA-Seq),KTC 0.2μM,19.27 and 21.51 and 19.83
same,Spry4 gene expression (RNA-Seq),KTC 0.2μM,2.44 and 2.59 and 2.62
same,Src gene expression (RNA-Seq),KTC 0.2μM,43.09 and 43.5 and 41.98
same,St3gal4 gene expression (RNA-Seq),KTC 0.2μM,75.01 and 74.93 and 70.63
same,Syt11 gene expression (RNA-Seq),KTC 0.2μM,7.36 and 7.81 and 7.47
same,Tlr2 gene expression (RNA-Seq),KTC 0.2μM,0.22 and 0.34 and 0.25
same,Tlr7 gene expression (RNA-Seq),KTC 0.2μM,0.79 and 0.75 and 0.7
same,Tnfaip3 gene expression (RNA-Seq),KTC 0.2μM,0.93 and 0.95 and 0.79
same,Zc3h12a gene expression (RNA-Seq),KTC 0.2μM,3.34 and 3.16 and 3.73
